Test results from patent US20250326765A1, “PDE4B INHIBITOR AND USE THEREOF” (XIZANG HAISCO PHARMACEUTICAL CO., LTD., priority 2022, published 2025).

Key:
[1] = target: T1, hERG potassium ion channel (Homo sapiens, UniProt Q12809); experiment: Test for hERG potassium ion channel (manual patch-clamp, CHO cells); type: cell-based; details: CHO cells stably expressing hERG, whole cell patch-clamp; read-out: IC50, inhibition of hERG potassium channel current
T1 construct: expressed in transfected cells
From the text: Experimental Platform: Electrophysiological Manual Patch-Clamp System
Cell line: Chinese hamster ovary (CHO) cell line stably expressing hERG potassium ion channel
Experimental method: CHO (Chinese Hamster Ovary) cells stably expressing hERG potassium channel were subjected to a whole cell patch-clamp technique to record the hERG potassium channel current at room temperature. The glass microelectrode was made of a glass electrode blank (BF150-86-10, Sutter) by a puller. The tip resistance after filling the liquid in the electrode was about 2-5 MQ. The glass microelectrode can be connected to the patch-clamp amplifier by inserting the glass microelectrode into an amplifier probe. The clamping voltage and data recording were controlled and recorded by the pClamp 10 software through a computer. The sampling frequency was 10 kHz, and the filtering frequency was 2 kHz. After the whole cell records were obtained, the cells were clamped at −80 mV, and the step voltage that induced the hERG potassium current (IhERG) was depolarized from −80 mV to +20 mV for 2 s, then repolarized to −50 mV, and returned to −80 mV after 1 s. This voltage stimulation was given every 10 s, and the administration process was started after the hERG potassium current was confirmed to be stable (at least 1 minute). The compound was administered for at least 1 minute at each test concentration, and at least 2 cells (n: 2) were tested at each concentration.
Data processing: Data analysis processing was carried out by using pClamp 10, GraphPad Prism 5, and Excel software. The degree of inhibition on the hERG potassium current (peak value of hERG tail current induced at −50 mV) at different compound concentrations was calculated by the following formula:
[formula] • where Inhibition % represents the percentage inhibition of the compound on the hERG potassium current, and I and Io represent the amplitude of the hERG potassium current after and before administration, respectively.
Compound IC50 was calculated using GraphPad Prism 5 software by fitting according to the following equation: […]

PDE4B1 = target: T2, PDE4B1 (Homo sapiens, UniProt Q07343); experiment: Effect of compounds on PDE4B1 activity (IMAP fluorescence polarization kit); type: biochemical; details: class symbols
T2 construct: purchased BPS 60041
Method: The IMAP Reaction Buffer containing 0.1% BSA (5×) in the kit was diluted into a 1-fold reaction buffer containing 1 mM DTT. 0.12 nM PDE4B1 (BPS, Cat #60041) was added to the 1-fold reaction buffer to form a 2-fold enzyme solution. 10 μL of the 2-fold enzyme solution was added to wells of a 384-well reaction plate. For the negative control well, 10 μL of the 1-fold reaction buffer was used instead of the enzyme solution. Centrifugation at 1000 rpm for 1 minute and incubation at room temperature for 15 minutes were carried out. 0.2 uM FAM-labeled cAMP (FAM-cAMP, Molecular Device, Cat #R7506) was added to the 1-fold reaction buffer to form a 2-fold substrate solution. 10 μL of the 2-fold substrate solution was added to each well of the 384-well reaction plate. Centrifugation at 1000 rpm for 1 minute was carried out. A reaction was carried out at room temperature for 20 minutes. IMAP Progressive Binding Buffer A (5×), IMAP Progressive Binding Buffer B (5×), and IMAP Progressive Binding Reagent (provided by IMAP FP IPP Explorer Kit) were prepared into a reaction stop solution according to the instructions for use. 60 μL of an […] reaction stop solution was added to each well of the 384-well reaction plate to stop the reaction, and the reaction product was centrifuged at 1000 rpm for 1 minute. Incubation at room temperature in the dark for 60 minutes was carried out. The mP values (Ex480/Em535 (s), Em535 (p)) were read by a microplate reader (Envision).
FP was usually represented by mP value. mP value for FP measurement=1000*(S−G*P)/(S+G*P) • S: fluorescence intensity in parallel direction • P: fluorescence intensity in perpendicular direction • G: G factor=1
[formula] • mP(sample): mP of the test compound in a reaction well • mP(negative control): mP in the negative control well • mP(positive control): mP in the positive control well
According to the calculated inhibition rate at each concentration, the IC50 value of each compound was calculated by XLFit excel add-in version 5.4.0.8 software.
Y=Bottom+(Top−Bottom)/(1+(IC50/X)^HillSlope) Fitting formula: […]

[2] = Inhibition of LPS-induced TNF-α release from human peripheral blood mononuclear cells in vitro; type: cell-based; details: PBMC, hPBMC, 100 ng/mL LPS, 4 h; for IC50: class symbols, read-out: Re IC50 (nM) (relative IC50), TNF-α induced by LPS
Method: Normal human peripheral blood which was anticoagulated (citric acid anticoagulation) was collected, and hPBMCs were prepared by Ficoll-Paque PLUS (Cytiva, Cat #17144002, density 1.077 g/mL). The concentration of hPBMC cells was adjusted to 0.25×10^6 cells/mL with RPMI1640 medium and inoculated into a 96-well plate in an amount of 50000 cells per well. Subsequently, different concentrations of drugs were added for pre-incubation for 1 h (the DMSO final concentration was 0.1%, and the positive and negative control wells had the same volume of RPMI1640 containing 0.1% DMSO). After the pre-incubation was complete, 100 ng/mL LPS (SIGMA, L2630) was added to the compound and positive control wells, and the negative control well had the same volume of RPMI1640 containing 0.1% DMSO. Incubation was carried out for 4 h in an incubator at 37° C. and 5% CO2. The cell supernatant was collected, and the content of TNF-α in the supernatant sample was detected by human TNF-α Elisa quantitative test kit (Sino Biological, Cat #KIT10602). The IC50 value was calculated using GraphPad Prism software.

T2 sequence (Q07343 whole entry): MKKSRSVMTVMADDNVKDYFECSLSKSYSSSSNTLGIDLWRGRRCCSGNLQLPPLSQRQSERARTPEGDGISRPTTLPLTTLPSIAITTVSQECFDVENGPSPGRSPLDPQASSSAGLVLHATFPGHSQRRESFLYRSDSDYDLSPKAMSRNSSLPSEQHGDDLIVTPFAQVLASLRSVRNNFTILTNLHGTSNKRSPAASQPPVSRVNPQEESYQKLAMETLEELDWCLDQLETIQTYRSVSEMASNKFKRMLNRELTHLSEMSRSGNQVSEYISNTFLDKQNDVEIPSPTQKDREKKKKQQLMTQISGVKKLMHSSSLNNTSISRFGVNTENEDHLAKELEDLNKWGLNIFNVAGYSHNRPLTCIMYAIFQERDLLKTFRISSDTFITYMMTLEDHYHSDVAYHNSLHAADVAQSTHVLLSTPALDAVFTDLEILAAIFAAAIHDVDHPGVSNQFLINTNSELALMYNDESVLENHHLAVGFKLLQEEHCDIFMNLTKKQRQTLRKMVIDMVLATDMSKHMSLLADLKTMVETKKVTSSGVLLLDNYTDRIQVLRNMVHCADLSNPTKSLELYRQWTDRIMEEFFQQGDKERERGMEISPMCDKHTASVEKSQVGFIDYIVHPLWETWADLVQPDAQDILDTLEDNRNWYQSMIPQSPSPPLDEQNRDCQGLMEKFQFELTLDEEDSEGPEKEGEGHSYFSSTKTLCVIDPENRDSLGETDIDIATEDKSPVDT
T1 sequence (Q12809 whole entry): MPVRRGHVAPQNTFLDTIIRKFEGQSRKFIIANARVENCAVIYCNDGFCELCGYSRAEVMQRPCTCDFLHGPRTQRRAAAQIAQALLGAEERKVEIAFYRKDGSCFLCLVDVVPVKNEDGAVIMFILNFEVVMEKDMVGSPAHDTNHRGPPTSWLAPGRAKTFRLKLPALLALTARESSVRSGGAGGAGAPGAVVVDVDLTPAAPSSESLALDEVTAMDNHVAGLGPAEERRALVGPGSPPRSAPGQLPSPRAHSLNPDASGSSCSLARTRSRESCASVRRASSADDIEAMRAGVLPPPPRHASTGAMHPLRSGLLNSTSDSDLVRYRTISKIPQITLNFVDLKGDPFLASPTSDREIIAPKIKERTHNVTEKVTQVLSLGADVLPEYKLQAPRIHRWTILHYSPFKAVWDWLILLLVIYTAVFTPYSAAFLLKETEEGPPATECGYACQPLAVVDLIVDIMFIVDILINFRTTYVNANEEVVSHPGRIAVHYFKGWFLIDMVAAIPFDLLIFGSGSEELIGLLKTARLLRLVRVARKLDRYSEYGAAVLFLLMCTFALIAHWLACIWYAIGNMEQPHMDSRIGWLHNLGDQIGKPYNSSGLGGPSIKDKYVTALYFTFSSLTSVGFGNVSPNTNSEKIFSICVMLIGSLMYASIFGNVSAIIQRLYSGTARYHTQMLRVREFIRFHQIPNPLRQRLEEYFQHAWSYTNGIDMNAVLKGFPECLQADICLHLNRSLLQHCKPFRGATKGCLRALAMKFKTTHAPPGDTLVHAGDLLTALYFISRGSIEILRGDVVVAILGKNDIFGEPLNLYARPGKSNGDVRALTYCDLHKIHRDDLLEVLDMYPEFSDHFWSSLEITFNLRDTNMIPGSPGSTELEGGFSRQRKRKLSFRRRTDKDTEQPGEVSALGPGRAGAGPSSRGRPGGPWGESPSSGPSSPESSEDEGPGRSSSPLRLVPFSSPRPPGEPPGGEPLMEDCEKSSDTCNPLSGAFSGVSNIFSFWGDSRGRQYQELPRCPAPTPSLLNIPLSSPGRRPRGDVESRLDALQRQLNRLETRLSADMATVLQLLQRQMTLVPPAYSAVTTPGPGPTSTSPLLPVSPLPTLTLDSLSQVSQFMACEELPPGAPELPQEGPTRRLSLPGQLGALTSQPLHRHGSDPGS

IC50 (PDE4B1) [µM]	IC50 [2] [nM]	Structure (SMILES)	IC50 [1] [µM]	Emax ([2]; read-out: Max inhibition (%)) [%]
< 0.01	50 to 100	[O-][S@+]1CCc2nc(N3C[C@H]4CN(c5ccc6c(c5)CC6)C[C@H]4C3)nc(NC3(CO)CCC3)c21 [Compound 31]	12.2	75.4
< 0.01	< 10	C#Cc1cnc(C2=CCN(c3nc4c(c(NC5(CO)CCC5)n3)[S+]([O-])CC4)CC2)nc1 (stereo not shown) [Compound 37]	13.3	
